What was measured:
[1] = test system: Candida albicans (ATCC 10231); assay: Colony forming units after plating Aβ-treated cultures; assay type: cell-based; conditions: 50 μg/ml peptide
Description: (§1) Enterococcus faecalis (ATCC 29212), Listeria monocytogenes (VA 15110/93), Escherichia coli (DH5α) and Staphylococcus aureus (ATCC 25923) were grown aerobically on blood agar plates. Candida albicans (ATCC 10231) was plated on Sabouraud dextrose agar plates. E. coli, S. aureus and C. albicans were cultured at 37 °C; E. faecalis and L. monocytogenes were cultured at 37 °C with an additional 5% CO2. Before the experiments, the organisms were subcultured to generate mid-logarithmic growth cultures for use as inoculates. Colonies from the agar were transferred using a sterile loop to Mueller-Hinton broth (Roth, Karlsruhe, Germany) and incubated for 100 min at 39 °C to achieve a McFarland density of 0.5. The C. albicans and bacterial inocula were normalized in Mueller-Hinton broth to 5 × 10^5 cells/ml immediately before use. For the experiments, an inoculum of 5 × 10^5 cells/ml was dispensed into 96-well plates containing Mueller-Hinton broth growth medium with Aβ peptides, as indicated below.
(§2) Immediately before the experiments, all peptides were diluted in Mueller-Hinton broth to reach a final concentration of 100 μg/ml.
(§3) The viability of E. faecalis, E. coli and C. albicans was further examined by plating Aβ-treated cultures on agar plates. Cultures of E. coli, E. faecalis and C. albicans were prepared as described above. After incubation with 50 μg/ml Aβ1-40, Aβ1-42 or Aβ3p-42 for 6 h for bacteria and 20 h for C. albicans, the cell suspensions were diluted in Mueller-Hinton broth, and the microbial load was determined using an Eddy Jet Spiral Plater (IUL Instruments, Germany) by depositing 50 μl of sample on a rotating agar plate. Bacteria were grown on Mueller-Hinton agar plates, and C. albicans was grown on Sabouraud dextrose agar plates. After 24 h of incubation, colonies were counted and translated to colony-forming units (CFU)/ml.

[2] = test system: Enterococcus faecalis (ATCC 29212); assay: as above; assay type: cell-based; conditions: 50 μg/ml peptide, 6 h, Mueller-Hinton broth, inoculum 5 × 10^5 cells/ml, spiral plated, colonies counted after 24 h
Description: as §1, §2, §3

Escherichia coli (DH5α) = assay: as above; assay type: cell-based; conditions: 50 μg/ml peptide, 6 h, Mueller-Hinton broth, inoculum 5 × 10^5 cells/ml, spiral plated, colonies counted after 24 h
Description: as §1, §2, §3

[3] = test system: E. faecalis, E. coli, S. aureus, L. monocytogenes and C. albicans; assay: Flow cytometry of damaged microorganisms (increased autofluorescence / reduced forward scatter); assay type: cell-based; conditions: 25 or 50 μg/ml, 6 h bacteria, 20 h C. albicans
Description: as §1, with “below. […]” for “below.”
After 6 h of incubation for bacteria and 20 h for C. albicans, 50 μl of the cell suspension was diluted in 1% paraformaldehyde (Sigma-Aldrich, Munich, Germany) and stained with DAPI (Sigma-Aldrich, Munich, Germany). Flow cytometry analysis was performed using a Gallios Cytometer (Beckman Coulter, Krefeld, Germany), and the results were evaluated using Kaluza® software (Beckman & Coulter, Krefeld, Germany). Experiments were repeated at least three times for each organism, and duplicates were included for each assay condition. Cultures treated with antibiotics, Mueller-Hinton broth without cells and untreated cells served as controls. Viability was assessed based on the increase in autofluorescence and reduction of forward scatter as signs of microbial damage.

E. faecalis [4] = assay: Automated quantification of cell aggregation on immunocytochemistry slides; assay type: cell-based, Enterococcus faecalis; conditions: 50 μg/ml, 6 h
Description: (§4) The immunocytochemistry of E. faecalis and S. aureus was examined using the Gram preparations specified above. To achieve the robust adherence of pathogens on the glass slides during the staining procedure, cells were incubated with 2% paraformaldehyde (Sigma-Aldrich, Munich, Germany) on the slides and air dried for 60 min at room temperature, followed by washing with PBS (Biochrom, Berlin, Germany). […]
(§5) All images were visually quality controlled. […] An automated quantitative phenotypic image analysis was performed using a custom-adapted version of the image analysis software DetecTiff. Pericellular Aβ peptide levels were quantified from the AF488 channel within donut-shaped masks (see Fig. 1B), which were generated from the DAPI channel in a three-step procedure. […] The Aβ peptide level in an individual cell was calculated as the arithmetic mean of all pixel values within the area of a donut-shaped mask and reported as the mean pixel intensity. Cell aggregation was quantified in an automated manner from segmented images of DAPI-stained nuclei by counting the number of bacteria adjacent to a selected individual bacterium within a rectangular 50-pixel[2] region.

S. aureus = assay: as above; assay type: cell-based, Staphylococcus aureus; conditions: 50 μg/ml, 6 h
Description: as §4, §5

[5] = test system: E. faecalis, E. coli, S. aureus, L. monocytogenes and C. albicans; assay: Gram staining, microbial agglutination; assay type: cell-based; conditions: 50 μg/ml, 6 h (20 h for C. albicans)
Description: as §1
The same cultures analysed by flow cytometry were used for the gram staining. After incubating the bacteria and C. albicans with the peptides, 10 μl of the cell suspensions were air-dried on microscope slides and flame-fixated. The smears were flooded with crystal violet solution for 2 min. The slides were rinsed and then incubated for 2 min with iodine solution. […]

E. faecalis [6] = assay: Scanning electron microscopy; assay type: cell-based, Enterococcus faecalis; conditions: 50 μg/ml, 6 h
Text: The specimens were attached to aluminum holders and sputtered with platinum in 15-nm layers using a LEICA EM SCD-500 (Leica, Wetzlar, Germany). The surface morphology of the platinum sputter-coated samples was investigated using a JSM 6 610 scanning electron microscope (JEOL, Peabody, MA, USA) at a working distance of 10 mm and an acceleration voltage of 10 kV at room temperature.

C. albicans = assay: Proliferation by turbidimetry at 570 nm; assay type: cell-based, Candida albicans; conditions: 3.13 or 6.25 μg/ml, 20 h (Fig. 5 legend: 24 h), 37 °C
Description: as §1
An inoculum of 5 × 10^5 cells/ml was dispensed into 96-well plates containing Mueller-Hinton broth growth medium and 3.13 μg/ml or 6.25 μg/ml Aβ-peptides or LL-37 (Anaspec, Fremont, CA, USA). […] The resulting absorbance was measured with a SpectraMax 340 PC 384 microplate reader (Molecular Devices, Biberach, Germany). The proliferation of C. albicans was assessed by measuring turbidity at 570 nm.

[7] = test system: surfaces of E. faecalis and S. aureus; assay: Immunocytochemistry (6E10), Aβ peptide bound to microbial surface; assay type: binding; conditions: 50 μg/ml, 6 h, 6E10 antibody, mean pixel intensity in donut-shaped masks
[8] = Thioflavin T assay of Aβ peptide aggregation; assay type: physicochemical; conditions: 160 μg/ml in PBS/0.4% NH4OH, 0.2 mM Thioflavin T, 37 °C, 6 h, Ex 450/Em 484 nm; with heat inactivated E. coli, S. aureus or C. albicans (McFarland 0.5) versus PBS alone or 0.5 μm carboxylated microbeads
Description: Thioflavin T was used to monitor the aggregation of Aβ1-42 in the presence of microorganisms. In a black 96-well plate, 160 μg/ml of Aβ1-42 in PBS/0.4% NH4OH were mixed with heat inactivated E. coli, S. aureus or C. albicans at a final density of McFarland 0.5. Leaving away the microorganisms or adding 10 μg/ml carboxylated microbeads (Micromod, Rostock, Germany) with a diameter of 0.5 μm served as control. After adding Thioflavin T (Sigma-Aldrich, Munich, Germany) in final concentration of 0.2 mM, kinetic measurement was performed at 37 °C with excitation at 450 nm and emission at 484 nm in a CLARIOstar® microplate reader (BMG labtech, Ortenberg, Germany). Measurements containing the respective microorganisms but no Aβ1-42 served as blank.

Row | Substance | antimicrobial effect in culture (colony forming units) ([1]; 20 h) | reduction of the number of colony forming units compared to untreated cultures [2] | reduction of the number of colony forming units compared to untreated cultures (Escherichia coli (DH5α)) | antimicrobial / microbicidal activity by flow cytometry [3] | agglutination of bacteria (number of cells around each bacterium) (E. faecalis [4]) | agglutination of bacteria (number of cells around each bacterium) (S. aureus) | microbial agglutination in Gram stains [5] | aggregates of bacteria in scanning electron microscopy (E. faecalis [6]) | proliferation of C. albicans (turbidity) (C. albicans) | reduction of the number of colony forming units ([1]; 20 h (Fig. 5 legend: 24 h), Sabouraud dextrose agar, colonies counted after 24 h) | damaged microorganisms (reduced forward scatter and increased autofluorescence, AF+/FSC−), share of cells ([3]; DAPI-positive events) | binding of Aβ peptide to microbial surfaces [7] | agglutination (aggregation) of the peptide, Thioflavin fluorescence over time [8]
1 | Aβ1-40: non-amyloidogenic amyloid-β peptide variant ending at position 40 (Anaspec) | moderate antimicrobial effect | not reduced | not reduced | No microbicidal activity was observed | almost no agglutination | almost no agglutination | Neither Aβ1-40 nor Aβ2-40 induced microbial agglutination | Only minor aggregates | miss the cytotoxic effect |  |  |  | 
2 | Aβ1-42: amyloidogenic amyloid-β peptide variant ending at position 42 (Anaspec) |  | 50% | 50% | exerted antimicrobial activity | led to agglutination | led to agglutination |  |  |  | 85% | up to 70% | bound to microbial surfaces | more rapid increase in Thioflavin fluorescence
3 | Aβ2-40: non-amyloidogenic, N-terminally truncated amyloid-β peptide variant ending at position 40 (Anaspec) |  |  |  | No microbicidal activity was observed |  |  | Neither Aβ1-40 nor Aβ2-40 induced microbial agglutination | larger aggregates of bacteria that retained their vital morphology | miss the cytotoxic effect |  |  |  | 

Source: paper PMC5021948, “Amyloidogenic amyloid-β-peptide variants induce microbial agglutination and exert antimicrobial activity” (Scientific Reports, 2016)
